“Also recorded” adds a separate entry of the source. Residues, ends and D or L forms follow the SMILES beside them.
What was measured:
[1] = target: T1, angiotensin converting enzyme (ACE, EC 3.4.15.1) (Oryctolagus cuniculus, UniProt P12822); assay type: biochemical; conditions: for IC50: read-out: ACEI activity IC50, synthetic peptides; for ACEI activity in vitro (in words): peptides
T1 sequence (P12822 34-1310): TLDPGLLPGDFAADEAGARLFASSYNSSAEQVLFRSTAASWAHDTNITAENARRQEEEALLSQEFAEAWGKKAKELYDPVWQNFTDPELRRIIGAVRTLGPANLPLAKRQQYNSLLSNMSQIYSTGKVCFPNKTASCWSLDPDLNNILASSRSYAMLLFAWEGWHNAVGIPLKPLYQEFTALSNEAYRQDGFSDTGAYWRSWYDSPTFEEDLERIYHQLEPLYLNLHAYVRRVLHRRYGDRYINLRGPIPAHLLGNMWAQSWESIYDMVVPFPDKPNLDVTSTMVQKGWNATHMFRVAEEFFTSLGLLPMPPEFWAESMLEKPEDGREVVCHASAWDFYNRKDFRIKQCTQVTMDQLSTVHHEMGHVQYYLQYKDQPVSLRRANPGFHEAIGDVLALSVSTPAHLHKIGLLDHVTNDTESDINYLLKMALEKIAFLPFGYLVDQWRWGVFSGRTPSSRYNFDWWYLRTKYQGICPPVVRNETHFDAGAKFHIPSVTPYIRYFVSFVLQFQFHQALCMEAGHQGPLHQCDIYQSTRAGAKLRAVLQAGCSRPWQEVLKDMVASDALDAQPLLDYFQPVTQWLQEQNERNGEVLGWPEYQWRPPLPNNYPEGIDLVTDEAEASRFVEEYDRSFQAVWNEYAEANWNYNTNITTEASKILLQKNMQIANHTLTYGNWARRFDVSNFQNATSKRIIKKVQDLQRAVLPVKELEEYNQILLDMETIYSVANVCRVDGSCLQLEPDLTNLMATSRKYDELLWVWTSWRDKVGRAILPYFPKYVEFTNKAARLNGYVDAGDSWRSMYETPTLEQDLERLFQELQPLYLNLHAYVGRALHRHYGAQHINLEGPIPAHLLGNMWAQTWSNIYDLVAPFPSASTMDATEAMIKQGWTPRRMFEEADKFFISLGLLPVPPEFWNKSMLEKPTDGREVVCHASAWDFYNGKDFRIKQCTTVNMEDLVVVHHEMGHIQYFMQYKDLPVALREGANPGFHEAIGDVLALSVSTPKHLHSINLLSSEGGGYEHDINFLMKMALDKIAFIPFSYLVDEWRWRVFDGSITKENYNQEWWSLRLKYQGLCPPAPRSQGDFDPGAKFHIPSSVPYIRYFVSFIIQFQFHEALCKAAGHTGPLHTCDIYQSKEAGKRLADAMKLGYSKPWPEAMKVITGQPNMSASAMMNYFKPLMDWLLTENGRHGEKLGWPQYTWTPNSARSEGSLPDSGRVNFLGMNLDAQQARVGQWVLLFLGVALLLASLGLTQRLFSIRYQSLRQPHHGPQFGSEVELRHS
Procedure: The inhibitory activity of the angiotensin converting enzyme (ACE) is measured in vitro according to the method of D. W. Cushman and H. S. Cheung (Spectrophotometric assay and properties of the angiotensin-converting enzyme of rabbit lung. Biochemical Pharmacology, 1971, 20: 1637-1648), later on modified by Y. K. Kim, S. Yoon, D. Y. Yu, B. Lönnerdal and B. H. Cheung (Novel angiotensin-I-converting enzyme inhibitory peptides derived from recombinant human αs1-casein expressed in Escherichia coli, Journal of Dairy Research 1999, 66, 431-439).
The substrate hippuryl histidyl leucine (HHL, Sigma Chemicals Co., St. Louis, Mo., USA) is dissolved in a 0.1 M borate buffer with 0.3 M NaCl pH 8.3 to obtain a final concentration of 5 mM. To 100 μl of substrate are added 40 μl of each of the samples whose ACEI activity it is wished to determine. The ACE enzyme (EC 3.4.15.1, Sigma) is added, dissolved in 50% glycerol and diluted 1/10 in bidistilled water at the moment of conducting the assay. The reaction is carried out at 37° C. for 30 minutes in a water-bath. The enzyme is deactivated by lowering the pH with 150 μl of 1 N HCl. The hippuric acid formed is extracted with 1000 μl of ethyl acetate. Following vortex stirring for 20 seconds, it is centrifuged at 4000 rpm for 10 minutes at room temperature. 750 μl of the organic phase are taken and evaporated by heating at 95° C. for 10 minutes. The hippuric acid residue is redissolved in 800 μl of bidistilled water and, following stirring for 20 seconds, the absorbency at 228 nm is measured in a Dur-70 spectrophotometer from Beckman Instruments, Inc., Fullerton, USA.
In order to calculate the percentage of ACEI activity, the following formula is used
The blank is used for correcting the background absorbency. This contains substrate, enzyme and 20 μl of bidistilled water in place of the sample, and the reaction is halted at zero time. The control implies a hundred percent of the enzymatic action on the substrate in the absence of inhibitors and contains 20 μl of water in place of the sample and is incubated the same time as the sample.
The results are presented as the IC50 (μM or μg/ml) or concentration at which 50% of the enzyme's activity is inhibited. The concentration of protein is determined by means of the bicinchonomic acid (BCA) assay (Pierce, Rockford, Ill., USA) using bovine seroalbumin as reference.

[2] = test system: spontaneously hypertensive rats (SHR); assay: Antihypertensive activity: systolic arterial pressure (tail cuff) in spontaneously hypertensive rats; assay type: in vivo, rat; conditions: for time of maximum drop in SAP after administration: intragastric probe; for drop in systolic arterial pressure (SAP) / anti-hypertensive activity (in words): single administration by intragastric probe
Procedure: (§1) The effect is studied of various identified peptides and of some products containing them (for example egg white hydrolysed with pepsin for 3 hours and the fraction of it less than 3000 Da) on the arterial pressure of spontaneously hypertensive rats (SHR) and Wistar-Kyoto rats (WKY) which are the normotense controls for the SHR.
(§2) This study is conducted with SHR (10) and WKY of 17-24 weeks old and weight between 300 and 350 g, coming from Charles River Laboratories España, S. A. The rats are kept in cages of five by five and maintained at a stable temperature of 25° C. with light-dark cycles of 12 hours, ingesting freely available water and food. In order to carry out the measurement of systolic arterial pressure (SAP) “tail cuff” equipment is used (Le5001, Letica) which automatically provides a digital value of the SAP and records and facilitates the cardiac frequency of the animals. Various measurements are made and the average of all of them is obtained in order to achieve a reliable value of the SAP. Before positioning the cuff and transducer in the tail of the rats, the rats are exposed to a temperature of close to 30° C. in order to facilitate dilation of the caudal artery. Also, in order to ensure the reliability of the measurement, the animals are made to get used to the procedure for two weeks prior to conducting each assay in question.
(§3) The administration of the products to be assayed is done by means of an intragastric probe in a time margin of between 9 and 10 o'clock in the morning. The SHR used for the study had SAP values of between 230 and 280 mm Hg. The WKY used for the study at that moment had SAP values of between 160 and 200 mm Hg. Measurements of the SAP were taken from the animals periodically, every 2 hours, up to 8 hours post-administration of the products to be assayed; in addition, a SAP measurement was taken 24 hours after the administration of those products. As negative control (in order to establish the circadian variation of the SAP in probed rats) the measurements of the SAP obtained in rats which had been administered 1 ml of water by means of intragastric probe were used. As positive control, the measurements of the SAP obtained in rats which had been administered 50 mg/kg of Captopril (prototype ACEI drug) by means of intragastric probe were used. This dose of Captopril was administered to each rat in a volume of 1 ml. In order to establish the effect of the unhydrolysed egg white on the arterial pressure of the animals, similar assays to those described above were conducted, in which the animals were treated by the same procedure with 200 mg/kg of previously freeze-dried egg white (reference).
The results obtained are grouped and the mean±the standard error of measurement (SEM) is obtained for a minimum of 9 homogenous assays. The data of the treated animals are always compared with the data deemed to be a negative control. In order to compare them and obtain the statistical significance, Student's t-test for unpaired data is used and the difference for values of p<0.05 is considered significant.

Wistar-Kyoto rats (WKY) = assay: Systolic arterial pressure (tail cuff) in normotense Wistar-Kyoto rats; assay type: in vivo, rat; conditions: highest dose used, intragastric probe
Procedure: as §1, §2, §3
The results obtained are grouped and the mean±the standard error of measurement (SEM) is obtained for a minimum of 9 homogenous assays. […]

CC[C@H](C)[C@H](NC(=O)[C@H](CC(C)C)NC(=O)[C@@H](N)CCC(=O)O)C(=O)N[C@@H](CC(N)=O)C(=O)O [SEQ. ID. N^o 14, ELIN] (H-ELIN-OH)
IC50 [1]: > 1000 µM

CC[C@H](C)[C@H](NC(=O)[C@@H]1CCCN1C(=O)[C@H](CCC(=O)O)NC(=O)[C@H](CC(C)C)NC(=O)CNC(=O)CNC(=O)[C@H](CCCNC(=N)N)NC(=O)[C@@H](N)Cc1ccc(O)cc1)C(=O)N[C@@H](CC(N)=O)C(=O)N[C@@H](Cc1ccccc1)C(=O)O [SEQ. ID. N^o 15] (H-YRGGLEPINF-OH)
IC50 [1]: > 1000 µM

CC(C)C[C@H](NC(=O)CNC(=O)[C@H](CO)NC(=O)[C@@H](NC(=O)[C@H](CCC(=O)O)NC(=O)[C@H](CC(=O)O)NC(=O)[C@@H]1CCCN1C(=O)[C@H](CC(C)C)NC(=O)[C@H](CC(C)C)NC(=O)[C@@H](N)C(C)C)C(C)C)C(=O)O [SEQ. ID. N^o 13] (H-VLLPDEVSGL-OH)
IC50 [1]: > 1000 µM

CC(C)C[C@H](NC(=O)[C@H](Cc1ccccc1)NC(=O)[C@@H]1CCCN1C(=O)[C@H](Cc1c[nH]cn1)NC(=O)[C@H](CC(=O)O)NC(=O)[C@H](C)NC(=O)[C@@H](N)CCCNC(=N)N)C(=O)O [SEQ. ID. N^o 3, RADHPFL] (H-RADHPFL-OH; N-terminus and C-terminus assumed)
ACEI activity in vitro (in words) [1]: potent ACEI activity
IC50 [1]: 6.2 µM
time of maximum drop in SAP after administration [2]: 6 h
drop in systolic arterial pressure (SAP) / anti-hypertensive activity (in words) [2]: possess anti-hypertensive activity; also recorded: significant dose-dependent drop in the SAP; also recorded: clear and pronounced anti-hypertensive effect; also recorded: display anti-hypertensive activity
change in SAP in normotense rats (in words) (Wistar-Kyoto rats (WKY)): not in normotensed Wistar-Kyoto rats; also recorded: none of these compounds modifies the SAP

CC[C@H](C)[C@H](NC(=O)[C@H](CO)NC(=O)[C@@H](N)CCC(=O)O)C(=O)N[C@H](C(=O)N[C@@H](CC(N)=O)C(=O)N[C@@H](Cc1ccccc1)C(=O)O)[C@@H](C)CC [SEQ. ID. N^o 12, ESIINF] (H-ESIINF-OH)
IC50 [1]: > 1000 µM

CC[C@H](C)[C@H](NC(=O)[C@H](CC(=O)O)NC(=O)[C@@H](N)CCCNC(=N)N)C(=O)N[C@@H](CC(C)C)C(=O)N[C@@H](CC(N)=O)C(=O)N[C@@H](CCC(N)=O)C(=O)O [SEQ. ID. N^o 7, RDILNQ] (H-RDILNQ-OH)
IC50 [1]: 436 µM

CC[C@H](C)[C@H](N)C(=O)N[C@H](C(=O)N[C@@H](Cc1ccccc1)C(=O)O)C(C)C [SEQ. ID. N^o 2, IVF]
ACEI activity in vitro (in words) [1]: potent ACEI activity
time of maximum drop in SAP after administration [2]: 6 h
drop in systolic arterial pressure (SAP) / anti-hypertensive activity (in words) [2]: possess anti-hypertensive activity; also recorded: significant dose-dependent drop in the SAP; also recorded: clear and pronounced anti-hypertensive effect; also recorded: display anti-hypertensive activity
change in SAP in normotense rats (in words) (Wistar-Kyoto rats (WKY)): not in normotensed Wistar-Kyoto rats; also recorded: none of these compounds modifies the SAP

CSCC[C@H](NC(=O)[C@H](C)NC(=O)[C@H](CC(C)C)NC(=O)[C@H](C)NC(=O)[C@@H](N)CO)C(=O)O [SEQ. ID. N^o 8, SALAM] (H-SALAM-OH)
IC50 [1]: 229 µM

CC[C@H](C)[C@H](NC(=O)[C@H](CCC(N)=O)NC(=O)[C@@H](N)Cc1ccc(O)cc1)C(=O)NCC(=O)N[C@@H](CC(C)C)C(=O)O [SEQ. ID. N^o 1, YQIGL] (H-YQIGL-OH; N-terminus and C-terminus assumed)
IC50 [1]: 174 µM

B1: unhydrolysed ovalbumin: ovalbumin grade VI (99% purity) (Sigma), unhydrolysed (protein)
chain: GSIGAASMEFCFDVFKELKVHHANENIFYCPIAIMSALAMVYLGAKDSTRTQINKVVRFDKLPGFGDSIEAQCGTSVNVHSSLRDILNQITKPNDVYSFSLASRLYAEERYPILPEYLQCVKELYRGGLEPINFQTAADQARELINSWVESQTNGIIRNVLQPSSVDSQTAMVLVNAIVFKGLWEKAFKDEDTQAMPFRVTEQESKPVQMMYQIGLFRVASMASEKMKILELPFASGTMSMLVLLPDEVSGLEQLESIINFEKLTEWTSSNVMEERKIKVYLPRMKMEEKYNLTSVLMAMGITDVFSSSANLSGISSAESLKISQAVHAAHAEINEAGREVVGSAEAGVDAASVSEEFRADHPFLFCIKHIATNAVLFFGRCVSP
ACEI activity IC50 ([1]; protein concentration, product as such): > 750 µg/mL

— patent US8227207B2, “Bioactive peptides derived from the proteins of egg white by means of enzymatic hydrolysis” (Consejo Superior de Investigaciones Cientifcas, priority 2004, dated 2012)
